PubChem BioAssay (NCI)
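Dose response: 5 concentrations. Exposure: 48 h. Format: 96-well plates. Endpoint: linear interpolation; highest concentration if not reached. At the GI50, growth is halved. TGI denotes the concentration required for complete inhibition of growth.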

What was measured:
Assay in all cases: inhibition of tumour cell growth, NCI panel, 48 h
[1] = test system: OVCAR-5 ovarian
[2] = test system: UO-31 renal
[3] = test system: HCT-116 colon
[4] = test system: U251 CNS
[5] = test system: LOX IMVI melanoma
[6] = test system: MDA-MB-231 breast
[7] = test system: K-562 leukemia
[8] = test system: NCI-H23 lung
[9] = test system: SR leukemia
[10] = test system: MOLT-4 leukemia

In the case of O=C1C2C3C=CC(C2C(=O)N1CN1CCOCC1)C1C2C(=O)N(CN4CCOCC4)C(=O)C2C31 (stereo not given), the TGI [1] is reported as > 92.7 µM, the TGI [2] is reported as > 84.6 µM and the TGI [3] is reported as > 62.8 µM. For the same compound, the TGI [4] was > 63.2 µM, the TGI [5] was > 60.9 µM and the TGI [6] was > 100 µM. The TGI [7] was > 79.3 µM, the TGI [8] was > 66.8 µM and the TGI [9] was > 100 µM. For the same compound, the TGI [10] was 53.3 µM.
In the case of O=C1c2c[n+](Cc3ccccc3)ccc2-c2nc3ccccc3c3ccnc1c23, the GI50 [1] is reported as 1.63 µM, the TGI [1] is reported as 10.5 µM and the GI50 [2] is reported as 0.756 µM. The TGI [2] was 17 µM, the GI50 [3] was 0.422 µM and the TGI [3] was 1.86 µM. For the same compound, the GI50 [4] was 0.541 µM, the TGI [4] was 1.64 µM and the GI50 [5] was 0.583 µM. It also gave a TGI [5] of 2.02 µM, a GI50 [6] of 0.711 µM and a TGI [6] of 3.21 µM. It also gave a GI50 [7] of 0.733 µM, a TGI [7] of 7.83 µM and a GI50 [8] of 0.158 µM. The TGI [8] was 1.26 µM, the GI50 [9] was 0.066 µM and the TGI [9] was 3.6 µM. The GI50 [10] was 0.719 µM and the TGI [10] was 1.89 µM.
With O=C1c2ccccc2-n2c1nc1ccc([N+](=O)[O-])cc1c2=O the TGI [1] was > 100 µM, the TGI [2] was > 100 µM and the TGI [3] was > 100 µM. The TGI [4] was > 100 µM, the TGI [5] was 51.7 µM and the TGI [6] was > 100 µM. The TGI [7] was > 100 µM, the TGI [8] was > 100 µM and the TGI [9] was > 100 µM. For the same compound, the TGI [10] was > 100 µM.
For Cc1ncc2c(n1)CCC1=C2OS(=O)(=O)CC1N(C)C (stereo not given), the TGI [1] was > 100 µM, the TGI [2] was > 100 µM and the TGI [3] was > 100 µM. For the same compound, the TGI [4] was > 100 µM, the TGI [5] was > 100 µM and the TGI [6] was > 100 µM. The TGI [7] was > 100 µM, the TGI [8] was > 100 µM and the TGI [9] was > 100 µM. The TGI [10] was > 100 µM.
In the case of CC1=C(C(=O)Nc2cc(F)c(F)cc2F)C(c2ccc(N(C)C)cc2)C(C(=O)Nc2cc(F)c(F)cc2F)=C(C)N1, the TGI [1] is reported as > 100 µM, the TGI [2] is reported as > 84.4 µM and the GI50 [3] is reported as 30.4 µM. The TGI [3] was > 100 µM, the TGI [4] was > 100 µM and the TGI [5] was > 100 µM. For the same compound, the GI50 [6] was 19 µM, the TGI [6] was > 100 µM and the TGI [7] was > 100 µM. The TGI [8] was > 85.1 µM, the GI50 [9] was 18.7 µM and the TGI [9] was > 100 µM. The TGI [10] was > 77.2 µM.
COc1cccc2c1C(=O)c1c(O)c3c(c(O)c1C2=O)C[C@@](O)(C(=O)CO)C[C@@H]3OC1CC2C(OCN2CN2COC3C(C)OC(O[C@H]4C[C@](O)(C(=O)CO)Cc5c(O)c6c(c(O)c54)C(=O)c4c(OC)cccc4C6=O)CC32)C(C)O1 (stereo not given in full) was tested, and the GI50 [1] was 0.0304 µM, the TGI [1] was > 0.264 µM and the GI50 [2] was 0.00304 µM. For the same compound, the TGI [2] was 0.0283 µM, the GI50 [3] was 0.00564 µM and the TGI [3] was > 0.39 µM. The GI50 [4] was 0.00291 µM, the TGI [4] was 0.0979 µM and the GI50 [5] was 0.002 µM. The TGI [5] was 0.0328 µM, the GI50 [6] was 0.0156 µM and the TGI [6] was 0.072 µM. The GI50 [7] was 0.00402 µM, the GI50 [8] was 0.00477 µM and the TGI [8] was 0.0316 µM. For the same compound, the GI50 [9] was 0.000289 µM, the TGI [9] was 0.00476 µM and the GI50 [10] was 0.000203 µM. It also gave a TGI [10] of 0.00801 µM.
For O=C(O)CC(CC(=O)O)n1cccc1, the TGI [1] was > 100 µM, the TGI [2] was > 100 µM and the TGI [3] was > 100 µM. For the same compound, the TGI [4] was > 100 µM, the TGI [5] was > 100 µM and the TGI [6] was > 100 µM. For the same compound, the TGI [7] was > 100 µM, the TGI [8] was > 100 µM and the TGI [9] was > 100 µM. For the same compound, the TGI [10] was > 100 µM.
For O=C(/C=C/c1cccc(Cl)c1)c1ccccc1, the GI50 [1] was 11.2 µM, the TGI [1] was 24.5 µM and the GI50 [2] was 6.55 µM. It also gave a TGI [2] of 21.9 µM, a GI50 [3] of 1.44 µM and a TGI [3] of 2.97 µM. It also gave a GI50 [4] of 2.67 µM, a TGI [4] of 7.89 µM and a GI50 [5] of 3.06 µM. For the same compound, the TGI [5] was 10.8 µM, the GI50 [6] was 12.2 µM and the TGI [6] was 28.5 µM. The GI50 [7] was 2.86 µM, the TGI [7] was 18.9 µM and the GI50 [8] was 14.8 µM. The TGI [8] was 29.6 µM, the GI50 [9] was 2.6 µM and the TGI [9] was 31.5 µM. For the same compound, the GI50 [10] was 4.07 µM and the TGI [10] was 36.4 µM.
Cc1nc2sc(C(=O)Nc3cccc4c3OCCO4)c(N)c2cc1C(C)O (stereo not given) was tested, and the GI50 [1] was 43.2 µM, the TGI [1] was > 100 µM and the GI50 [2] was 7.3 µM. The TGI [2] was > 100 µM, the GI50 [3] was 5.57 µM and the TGI [3] was > 100 µM. For the same compound, the GI50 [4] was 4.66 µM, the TGI [4] was > 100 µM and the GI50 [5] was 5.26 µM. For the same compound, the TGI [5] was > 100 µM, the GI50 [6] was 36.3 µM and the TGI [6] was > 100 µM. The GI50 [7] was 1.37 µM, the TGI [7] was > 100 µM and the GI50 [8] was 6.67 µM. For the same compound, the TGI [8] was > 100 µM, the GI50 [9] was 1.18 µM and the TGI [9] was > 100 µM. The GI50 [10] was 4.97 µM and the TGI [10] was > 100 µM.
Work on COc1cc(/C=C/C(=O)c2cccc(-n3cc(-c4ccccc4)[nH]c3=O)c2)ccc1O yielded a GI50 [1] of 6.25 µM, a TGI [1] of 14.1 µM and a GI50 [2] of 2.01 µM. It also gave a TGI [2] of 8.73 µM, a GI50 [3] of 1.8 µM and a TGI [3] of 4.11 µM. For the same compound, the GI50 [4] was 2.5 µM, the TGI [4] was 7.9 µM and the GI50 [5] was 2.5 µM. For the same compound, the TGI [5] was 9.16 µM, the GI50 [6] was 3.36 µM and the TGI [6] was 15.2 µM. For the same compound, the GI50 [7] was 2.23 µM, the TGI [7] was 9.29 µM and the GI50 [8] was 3.16 µM. The TGI [8] was 11.6 µM, the GI50 [9] was 1.65 µM and the TGI [9] was > 100 µM. For the same compound, the GI50 [10] was 2.49 µM and the TGI [10] was 6.28 µM.
Work on CCN(CC)CCNc1ccc2nc(C)n3c4ccc(OC)cc4c(=O)c1c23 yielded a TGI [1] of 20.3 µM, a TGI [2] of 16.3 µM and a TGI [3] of 6 µM. For the same compound, the TGI [4] was 20.6 µM, the TGI [5] was 2.55 µM and the TGI [6] was 16.9 µM. For the same compound, the TGI [7] was 4.13 µM, the TGI [8] was 18.3 µM and the TGI [9] was 0.56 µM. For the same compound, the TGI [10] was 1.15 µM.
With C[C@H]1CCC/C=C/[C@@H]2C[C@H](O)C[C@H]2[C@H](O)C(O)C(O)C(=O)O1 (stereo not given in full) the GI50 [1] was 6.24 µM, the TGI [1] was > 100 µM and the GI50 [2] was 3.44 µM. For the same compound, the TGI [2] was > 76.1 µM, the GI50 [3] was 3.38 µM and the TGI [3] was 19 µM. The GI50 [4] was 3.51 µM, the TGI [4] was > 100 µM and the GI50 [6] was 2.5 µM. The TGI [6] was 4.84 µM, the GI50 [7] was 2.38 µM and the TGI [7] was > 23.6 µM. The GI50 [8] was 2.23 µM, the TGI [8] was > 100 µM and the GI50 [9] was 1.28 µM. For the same compound, the TGI [9] was 3.66 µM, the GI50 [10] was 0.906 µM and the TGI [10] was 4.56 µM.
CC(C)C[C@H](NC(=O)[C@@H](N)Cc1cccc2ccccc12)B(O)O showed a GI50 [1] of 0.174 µM, a GI50 [2] of 0.739 µM and a GI50 [3] of 0.138 µM. It also gave a GI50 [4] of 0.392 µM, a GI50 [5] of 0.184 µM and a GI50 [6] of 0.798 µM. The GI50 [8] was 0.245 µM, the TGI [9] was 0.0653 µM and the GI50 [10] was 0.21 µM.
COc1ccc(/C(=N/O)c2cc(F)c(F)c(OC)c2F)cc1O showed a GI50 [2] of 1.36 µM, a TGI [2] of 90.9 µM and a GI50 [3] of 0.393 µM. The TGI [3] was > 100 µM, the GI50 [4] was 0.634 µM and the TGI [4] was > 100 µM. For the same compound, the GI50 [5] was 0.605 µM, the TGI [5] was > 100 µM and the GI50 [6] was 2.46 µM. The TGI [6] was > 100 µM, the GI50 [7] was 0.271 µM and the TGI [7] was > 100 µM. The GI50 [8] was 1.9 µM, the TGI [8] was > 100 µM and the GI50 [9] was 0.241 µM. The TGI [9] was 34.1 µM, the GI50 [10] was 0.43 µM and the TGI [10] was 30 µM.
Compound COc1cc2c(cc1OCCCN1CCN(CCCOc3cc4c(cc3OC)C(=O)N3C[C@H](F)C[C@H]3C=N4)CC1)N=C[C@@H]1C[C@@H](F)CN1C2=O has a GI50 [1] of 0.198 µM, a TGI [1] of 3.24 µM and a GI50 [2] of 0.823 µM. For the same compound, the TGI [2] was 2.65 µM, the GI50 [3] was 0.034 µM and the TGI [3] was 0.252 µM. For the same compound, the GI50 [5] was 0.0176 µM, the TGI [5] was 0.145 µM and the GI50 [6] was 0.116 µM. The TGI [6] was 0.852 µM, the GI50 [7] was 0.0269 µM and the TGI [7] was 3.66 µM. The GI50 [8] was 0.0255 µM, the TGI [8] was 0.209 µM and the GI50 [9] was < 0.021 µM. For the same compound, the TGI [9] was 0.521 µM, the GI50 [10] was < 0.018 µM and the TGI [10] was 1.68 µM.
